The text below walks through data of patent US20260232574A1, “COMPOSITIONS AND METHODS FOR TREATING DYSMENORRHEA” (Daré Bioscience, Inc., priority 2023, published 2026).

The series in a line: pH / titration curve of 4% diclofenac sodium in water. The format is physicochemical.

As to `O=C(O)Cc1ccccc1Nc1c(Cl)cccc1Cl` [diclofenac, 2-[2-(2,6-dichloroanilino)phenyl]acetic acid], the “pH of diclofenac in water” value (4% diclofenac sodium in water) is listed as “around 7.8”. Besides, for the setting “strong acid or base”, the “buffering capacity to adjust the pH by 1 unit” value was 0.625 mMoles.
